Results from PubChem BioAssay (NCI).
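These data come from cells grown in 96-well plates and exposed to compound for 48 hours at five concentrations. Definition used: TGI = concentration required for complete inhibition of growth.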

What was measured:
Assay in all cases: DTP human tumour cell line panel, 48 h
[1] = system: HCC-2998 colon
[2] = system: CAKI-1 renal
[3] = system: LOX IMVI melanoma
[4] = system: 786-0 renal
[5] = system: HT29 colon
[6] = system: HL-60(TB) leukemia
[7] = system: SR leukemia
[8] = system: RXF 393 renal
[9] = system: SNB-75 CNS
[10] = system: SK-OV-3 ovarian
[11] = system: SNB-19 CNS
[12] = system: MCF7 breast
[13] = system: HOP-92 NSCLC
[14] = system: SK-MEL-2 melanoma
[15] = system: SW-620 colon
[16] = system: HCT-116 colon
[17] = system: TK-10 renal
[18] = system: OVCAR-5 ovarian
[19] = system: SF-295 CNS
[20] = system: M14 melanoma
[21] = system: NCI-H23 lung
[22] = system: A498 renal
[23] = system: HCT-15 colon
[24] = system: HS 578T breast
[25] = system: MDA-N
[26] = system: SK-MEL-5 melanoma
[27] = system: OVCAR-8 ovarian
[28] = system: UACC-62 melanoma
[29] = system: DU-145 prostate
[30] = system: PC-3 prostate
[31] = system: SN12C renal
[32] = system: RPMI-8226 leukemia
[33] = system: SF-539 CNS
[34] = system: NCI-H460 lung
[35] = system: NCI-H522 lung
[36] = system: OVCAR-4 ovarian
[37] = system: IGROV1 ovarian
[38] = system: MDA-MB-231 breast
[39] = system: UO-31 renal
[40] = system: OVCAR-3 ovarian
[41] = system: UACC-257 melanoma
[42] = system: MDA-MB-435
[43] = system: ACHN renal
[44] = system: T-47D breast
[45] = system: SF-268 CNS
[46] = system: MALME-3M melanoma
[47] = system: NCI/ADR-RES ovarian
[48] = system: KM12 colon
[49] = system: NCI-H226 lung
[50] = system: MOLT-4 leukemia
[51] = system: EKVX NSCLC
[52] = system: HOP-62 NSCLC
[53] = system: COLO 205 colon
[54] = system: A549 NSCLC
[55] = system: K-562 leukemia
[56] = system: SK-MEL-28 melanoma
[57] = system: CCRF-CEM leukemia
[58] = system: BT-549 breast
[59] = system: U251 CNS

Measured: TGI

CC1OC(OCC2OC(Oc3ccc(C4CC(=O)c5c(O)cc(O)cc5O4)cc3O)C(O)C(O)C2O)C(O)C(O)C1O (centres undefined)
> 100 µM: [1] | [2] | [3] | [4] | [5] | [6] | [7] | [8] | [9] | [10] | [11] | [12] | [13] | [14] | [15] | [16] | [17] | [18] | [19] | [20] | [21] | [22] | [23] | [24] | [25] | [26] | [27] | [28] | [29] | [30] | [31] | [32] | [33] | [34] | [35] | [36] | [37] | [38] | [39] | [40] | [41] | [42] | [43] | [44] | [45] | [46] | [47] | [48] | [49] | [50] | [51] | [52] | [53] | [54] | [55] | [56] | [57] | [58] | [59]
